From the supplement of paper PMC10307832

Tests used:
Test in all cases: relative viability (nuclei count vs DMSO), 5 days (fraction); higher = more cells survive
PC-3 [JPC-3] = test system: PC-3 [JPC-3]
Procedure, shortened: (§1)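 Lung cancer cell lines were pin-tool dosed in 1536-well plates on the day after seeding, with either a lone drug or a fixed anchor-drug dose plus five library-drug doses (not always all listed) in √10 steps. Nuclei were counted on 4× images after 5 days. Relative viability is the ratio of treated-well to vehicle-well nuclei counts, with each value a median of duplicate plates.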

UMC-11 = test system: UMC-11
Procedure, shortened: as §1

HCC-15 = test system: HCC-15
Procedure, shortened: as §1

LC-2-ad = test system: LC-2-ad
Procedure, shortened: as §1

NCI-H1666 = test system: NCI-H1666
Procedure, shortened: as §1

NCI-H1944 = test system: NCI-H1944
Procedure, shortened: as §1

NCI-H661 = test system: NCI-H661
Procedure, shortened: as §1

HCC-78 = test system: HCC-78
Procedure, shortened: as §1

NCI-H838 = test system: NCI-H838
Procedure, shortened: as §1

LXF-289 = test system: LXF-289
Procedure, shortened: as §1

NCI-H596 = test system: NCI-H596
Procedure, shortened: as §1

LK-2 = test system: LK-2
Procedure, shortened: as §1

SK-MES-1 = test system: SK-MES-1
Procedure, shortened: as §1

NCI-H358 = test system: NCI-H358
Procedure, shortened: as §1

NCI-H2087 = test system: NCI-H2087
Procedure, shortened: as §1

NCI-H2342 = test system: NCI-H2342
Procedure, shortened: as §1

NCI-H322M = test system: NCI-H322M
Procedure, shortened: as §1

LCLC-97TM1 = test system: LCLC-97TM1
Procedure, shortened: as §1

NCI-H650 = test system: NCI-H650
Procedure, shortened: as §1

ChaGo-K-1 = test system: ChaGo-K-1
Procedure, shortened: as §1

NCI-H1651 = test system: NCI-H1651
Procedure, shortened: as §1

BEN = test system: BEN
Procedure, shortened: as §1

LU99A = test system: LU99A
Procedure, shortened: as §1

With `CC1(C)CCC(c2ccc(Cl)cc2)=C(CN2CCN(c3ccc(C(=O)NS(=O)(=O)c4ccc(N[C@H](CCN5CCOCC5)CSc5ccccc5)c(S(=O)(=O)C(F)(F)F)c4)cc3)CC2)C1` [Navitoclax] + Cc1cc(Nc2cc(N3CCN(C)CC3)nc(Sc3ccc(NC(=O)C4CC4)cc3)n2)n[nH]1 [Tozasertib] (partner 0.1 µM) the relative viability (PC-3 [JPC-3]; first compound 0.005 µM) was 0.846, the relative viability (PC-3 [JPC-3]; first compound 0.01581 µM) was 0.892 and the relative viability (PC-3 [JPC-3]; first compound 0.05 µM) was 0.935. For the same compound, the relative viability (PC-3 [JPC-3]; first compound 0.1581 µM) was 0.898, the relative viability (PC-3 [JPC-3]; first compound 0.5 µM) was 0.876 and the relative viability (UMC-11; first compound 0.005 µM) was 0.196. The relative viability (UMC-11; first compound 0.01581 µM) was 0.184, the relative viability (UMC-11; first compound 0.05 µM) was 0.207 and the relative viability (UMC-11; first compound 0.1581 µM) was 0.2. The relative viability (UMC-11; first compound 0.5 µM) was 0.188, the relative viability (HCC-15; first compound 0.005 µM) was 0.428 and the relative viability (HCC-15; first compound 0.01581 µM) was 0.524. It also gave a relative viability (HCC-15; first compound 0.05 µM) of 0.449, a relative viability (HCC-15; first compound 0.1581 µM) of 0.481 and a relative viability (HCC-15; first compound 0.5 µM) of 0.467. The relative viability (LC-2-ad; first compound 0.005 µM) was 0.455, the relative viability (LC-2-ad; first compound 0.01581 µM) was 0.544 and the relative viability (LC-2-ad; first compound 0.05 µM) was 0.546. It also gave a relative viability (LC-2-ad; first compound 0.1581 µM) of 0.507, a relative viability (LC-2-ad; first compound 0.5 µM) of 0.343 and a relative viability (NCI-H1666; first compound 0.005 µM) of 0.626. It also gave a relative viability (NCI-H1666; first compound 0.01581 µM) of 0.638, a relative viability (NCI-H1666; first compound 0.05 µM) of 0.61 and a relative viability (NCI-H1666; first compound 0.1581 µM) of 0.587. It also gave a relative viability (NCI-H1666; first compound 0.5 µM) of 0.666, a relative viability (NCI-H1944; first compound 0.005 µM) of 0.254 and a relative viability (NCI-H1944; first compound 0.01581 µM) of 0.246. It also gave a relative viability (NCI-H1944; first compound 0.05 µM) of 0.241, a relative viability (NCI-H1944; first compound 0.1581 µM) of 0.259 and a relative viability (NCI-H1944; first compound 0.5 µM) of 0.206. It also gave a relative viability (NCI-H661; first compound 0.005 µM) of 0.355, a relative viability (NCI-H661; first compound 0.01581 µM) of 0.344 and a relative viability (NCI-H661; first compound 0.05 µM) of 0.341. The relative viability (NCI-H661; first compound 0.1581 µM) was 0.363, the relative viability (NCI-H661; first compound 0.5 µM) was 0.358 and the relative viability (HCC-78; first compound 0.005 µM) was 0.403. The relative viability (HCC-78; first compound 0.01581 µM) was 0.594, the relative viability (HCC-78; first compound 0.1581 µM) was 0.584 and the relative viability (HCC-78; first compound 0.5 µM) was 0.428. It also gave a relative viability (NCI-H838; first compound 0.005 µM) of 0.295, a relative viability (NCI-H838; first compound 0.01581 µM) of 0.328 and a relative viability (NCI-H838; first compound 0.05 µM) of 0.266. The relative viability (NCI-H838; first compound 0.1581 µM) was 0.266, the relative viability (NCI-H838; first compound 0.5 µM) was 0.292 and the relative viability (LXF-289; first compound 0.005 µM) was 0.192. For the same compound, the relative viability (LXF-289; first compound 0.01581 µM) was 0.222, the relative viability (LXF-289; first compound 0.05 µM) was 0.15 and the relative viability (LXF-289; first compound 0.1581 µM) was 0.193. It also gave a relative viability (LXF-289; first compound 0.5 µM) of 0.217, a relative viability (NCI-H596; first compound 0.005 µM) of 0.776 and a relative viability (NCI-H596; first compound 0.01581 µM) of 0.853. For the same compound, the relative viability (NCI-H596; first compound 0.1581 µM) was 0.885, the relative viability (NCI-H596; first compound 0.5 µM) was 1.03 and the relative viability (LK-2; first compound 0.005 µM) was 0.189. The relative viability (LK-2; first compound 0.01581 µM) was 0.187, the relative viability (LK-2; first compound 0.05 µM) was 0.198 and the relative viability (LK-2; first compound 0.1581 µM) was 0.159. For the same compound, the relative viability (LK-2; first compound 0.5 µM) was 0.2, the relative viability (SK-MES-1; first compound 0.005 µM) was 0.853 and the relative viability (SK-MES-1; first compound 0.01581 µM) was 0.976. For the same compound, the relative viability (SK-MES-1; first compound 0.05 µM) was 0.953, the relative viability (SK-MES-1; first compound 0.1581 µM) was 0.848 and the relative viability (SK-MES-1; first compound 0.5 µM) was 0.952. It also gave a relative viability (NCI-H358; first compound 0.005 µM) of 0.1, a relative viability (NCI-H358; first compound 0.01581 µM) of 0.0998 and a relative viability (NCI-H358; first compound 0.05 µM) of 0.105. It also gave a relative viability (NCI-H358; first compound 0.1581 µM) of 0.122, a relative viability (NCI-H358; first compound 0.5 µM) of 0.109 and a relative viability (NCI-H2087; first compound 0.005 µM) of 0.245. For the same compound, the relative viability (NCI-H2087; first compound 0.01581 µM) was 0.236, the relative viability (NCI-H2087; first compound 0.1581 µM) was 0.197 and the relative viability (NCI-H2087; first compound 0.5 µM) was 0.294. It also gave a relative viability (NCI-H2342; first compound 0.005 µM) of 0.537, a relative viability (NCI-H2342; first compound 0.01581 µM) of 0.471 and a relative viability (NCI-H2342; first compound 0.05 µM) of 0.558. It also gave a relative viability (NCI-H2342; first compound 0.1581 µM) of 0.543, a relative viability (NCI-H2342; first compound 0.5 µM) of 0.548 and a relative viability (NCI-H322M; first compound 0.005 µM) of 0.48. For the same compound, the relative viability (NCI-H322M; first compound 0.01581 µM) was 0.579, the relative viability (NCI-H322M; first compound 0.05 µM) was 0.491 and the relative viability (NCI-H322M; first compound 0.1581 µM) was 0.548. For the same compound, the relative viability (NCI-H322M; first compound 0.5 µM) was 0.532, the relative viability (LCLC-97TM1; first compound 0.005 µM) was 0.238 and the relative viability (LCLC-97TM1; first compound 0.01581 µM) was 0.164. For the same compound, the relative viability (LCLC-97TM1; first compound 0.05 µM) was 0.255, the relative viability (LCLC-97TM1; first compound 0.1581 µM) was 0.193 and the relative viability (LCLC-97TM1; first compound 0.5 µM) was 0.224. For the same compound, the relative viability (NCI-H650; first compound 0.005 µM) was 0.711, the relative viability (NCI-H650; first compound 0.01581 µM) was 0.818 and the relative viability (NCI-H650; first compound 0.05 µM) was 0.781. For the same compound, the relative viability (NCI-H650; first compound 0.1581 µM) was 0.765, the relative viability (NCI-H650; first compound 0.5 µM) was 0.718 and the relative viability (ChaGo-K-1; first compound 0.005 µM) was 0.238. For the same compound, the relative viability (ChaGo-K-1; first compound 0.01581 µM) was 0.225, the relative viability (ChaGo-K-1; first compound 0.05 µM) was 0.184 and the relative viability (ChaGo-K-1; first compound 0.1581 µM) was 0.239. For the same compound, the relative viability (ChaGo-K-1; first compound 0.5 µM) was 0.216, the relative viability (NCI-H1651; first compound 0.005 µM) was 0.586 and the relative viability (NCI-H1651; first compound 0.01581 µM) was 0.686. For the same compound, the relative viability (NCI-H1651; first compound 0.05 µM) was 0.493, the relative viability (NCI-H1651; first compound 0.1581 µM) was 0.62 and the relative viability (NCI-H1651; first compound 0.5 µM) was 0.66. It also gave a relative viability (BEN; first compound 0.005 µM) of 0.536, a relative viability (BEN; first compound 0.01581 µM) of 0.568 and a relative viability (BEN; first compound 0.05 µM) of 0.522. For the same compound, the relative viability (BEN; first compound 0.1581 µM) was 0.451, the relative viability (BEN; first compound 0.5 µM) was 0.421 and the relative viability (LU99A; first compound 0.005 µM) was 0.264. It also gave a relative viability (LU99A; first compound 0.01581 µM) of 0.355, a relative viability (LU99A; first compound 0.05 µM) of 0.244 and a relative viability (LU99A; first compound 0.1581 µM) of 0.337. For the same compound, the relative viability (LU99A; first compound 0.5 µM) was 0.37.
